From article PMC4823954, “From fighting depression to conquering tumors: a novel tricyclic thiazepine compound as a tubulin polymerization inhibitor” (Cell Death & Disease, 2016)

Assays:
Experiment in all cases: KINOMEscan
Assay type in all cases: binding
Details in all cases: read-out: % Ctrl
[1] = target: T1, FGR (Homo sapiens, UniProt P09769)
T1 construct: purchased DiscoveRx KINOMEscan
Method in brief: (§1)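 Competition binding panel of 442 non-mutant kinases: test compound at 5 and 10 μM competed with an active-site-directed ligand for 1 h with shaking. Bound kinase was eluted with 0.5 μM ligand and quantified by qPCR; %Ctrl = (compound − positive control)/(DMSO − positive control) × 100, lower meaning tighter binding.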

[2] = target: T2, PKN2 (Homo sapiens, UniProt Q16513)
T2 construct: purchased DiscoveRx KINOMEscan
T2 sequence (Q16513 whole entry): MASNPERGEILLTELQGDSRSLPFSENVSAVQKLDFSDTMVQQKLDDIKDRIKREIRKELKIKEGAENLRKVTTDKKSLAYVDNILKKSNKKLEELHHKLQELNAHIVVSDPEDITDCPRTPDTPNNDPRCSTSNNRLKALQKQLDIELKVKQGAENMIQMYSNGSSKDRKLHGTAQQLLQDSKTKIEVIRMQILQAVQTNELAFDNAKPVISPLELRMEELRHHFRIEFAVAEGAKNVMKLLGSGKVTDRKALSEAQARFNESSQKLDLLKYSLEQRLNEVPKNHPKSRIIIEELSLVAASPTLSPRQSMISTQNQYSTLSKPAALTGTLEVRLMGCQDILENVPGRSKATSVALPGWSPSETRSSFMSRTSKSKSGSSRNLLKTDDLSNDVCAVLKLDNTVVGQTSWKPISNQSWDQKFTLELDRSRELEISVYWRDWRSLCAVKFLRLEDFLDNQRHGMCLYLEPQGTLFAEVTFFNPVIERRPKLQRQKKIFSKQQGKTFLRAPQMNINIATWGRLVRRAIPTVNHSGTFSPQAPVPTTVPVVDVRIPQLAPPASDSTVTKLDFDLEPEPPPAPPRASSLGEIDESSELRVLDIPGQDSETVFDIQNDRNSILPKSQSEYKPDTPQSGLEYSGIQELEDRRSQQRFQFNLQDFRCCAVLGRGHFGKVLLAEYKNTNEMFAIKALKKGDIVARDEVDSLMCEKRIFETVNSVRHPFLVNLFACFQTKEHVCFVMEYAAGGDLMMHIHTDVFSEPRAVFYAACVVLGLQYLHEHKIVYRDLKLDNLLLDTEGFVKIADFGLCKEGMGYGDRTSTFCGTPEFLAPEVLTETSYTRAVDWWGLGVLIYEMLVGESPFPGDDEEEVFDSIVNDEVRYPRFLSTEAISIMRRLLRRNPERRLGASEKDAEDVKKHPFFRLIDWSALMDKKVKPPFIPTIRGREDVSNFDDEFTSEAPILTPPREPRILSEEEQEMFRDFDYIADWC
Method in brief: as §1

[3] = target: T3, CDK4-cyclinD3 (Homo sapiens, UniProt P11802)
T3 construct: purchased DiscoveRx KINOMEscan
Method in brief: as §1

[4] = target: T4, PLK4 (Homo sapiens, UniProt O00444)
T4 construct: purchased DiscoveRx KINOMEscan
T4 sequence (O00444 whole entry): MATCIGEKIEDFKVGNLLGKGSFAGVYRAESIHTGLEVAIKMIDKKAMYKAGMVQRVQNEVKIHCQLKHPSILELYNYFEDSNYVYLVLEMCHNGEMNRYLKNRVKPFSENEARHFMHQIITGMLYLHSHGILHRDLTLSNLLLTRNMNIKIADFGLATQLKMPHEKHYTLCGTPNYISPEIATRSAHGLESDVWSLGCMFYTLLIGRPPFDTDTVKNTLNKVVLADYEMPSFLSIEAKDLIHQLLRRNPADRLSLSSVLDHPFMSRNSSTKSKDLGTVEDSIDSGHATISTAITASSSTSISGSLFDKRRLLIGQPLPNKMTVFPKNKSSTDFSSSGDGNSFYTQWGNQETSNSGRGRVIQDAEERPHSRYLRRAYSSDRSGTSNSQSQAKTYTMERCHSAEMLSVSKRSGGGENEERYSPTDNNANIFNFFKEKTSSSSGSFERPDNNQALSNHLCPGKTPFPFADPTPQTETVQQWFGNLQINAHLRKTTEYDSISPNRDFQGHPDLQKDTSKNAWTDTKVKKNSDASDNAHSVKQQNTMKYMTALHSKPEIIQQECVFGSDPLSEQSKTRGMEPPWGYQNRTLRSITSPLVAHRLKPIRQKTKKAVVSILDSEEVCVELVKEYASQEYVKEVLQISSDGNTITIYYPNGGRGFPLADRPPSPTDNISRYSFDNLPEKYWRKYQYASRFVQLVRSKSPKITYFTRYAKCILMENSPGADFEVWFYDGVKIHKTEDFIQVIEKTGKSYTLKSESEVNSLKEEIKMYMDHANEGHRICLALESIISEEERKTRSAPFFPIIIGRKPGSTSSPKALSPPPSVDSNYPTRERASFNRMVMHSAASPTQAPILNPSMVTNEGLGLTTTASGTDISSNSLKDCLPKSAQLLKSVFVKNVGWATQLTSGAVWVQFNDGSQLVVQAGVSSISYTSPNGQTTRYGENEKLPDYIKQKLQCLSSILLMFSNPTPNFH
Method in brief: as §1

[5] = target: T5, ROCK2 (Homo sapiens, UniProt O75116)
T5 construct: purchased DiscoveRx KINOMEscan
Method in brief: as §1

[6] = target: T6, MUSK (Homo sapiens, UniProt O15146)
T6 construct: purchased DiscoveRx KINOMEscan
Method in brief: as §1

[7] = target: T7, CAMKK2 (Homo sapiens, UniProt Q96RR4)
T7 construct: purchased DiscoveRx KINOMEscan
Method in brief: as §1

[8] = target: T8, EGFR(G719S) (Homo sapiens, UniProt P00533, G719S)
T8 construct: purchased DiscoveRx KINOMEscan

[9] = target: T9, EPHB3 (Homo sapiens, UniProt P54753)
T9 construct: purchased DiscoveRx KINOMEscan
Method in brief: as §1

[10] = target: T10, IKK-epsilon (Homo sapiens, UniProt Q14164)
T10 construct: purchased DiscoveRx KINOMEscan
Method in brief: as §1

[11] = target: T11, CDK3 (Homo sapiens, UniProt Q00526)
T11 construct: purchased DiscoveRx KINOMEscan
Method in brief: as §1

[12] = target: T12, GSK3A (Homo sapiens, UniProt P49840)
T12 construct: purchased DiscoveRx KINOMEscan
Method in brief: as §1

[13] = target: T13, LCK (Homo sapiens, UniProt P06239)
T13 construct: purchased DiscoveRx KINOMEscan
Method in brief: as §1

[14] = target: T14, ACVRL1 (Homo sapiens, UniProt P37023)
T14 construct: purchased DiscoveRx KINOMEscan
Method in brief: as §1

[15] = target: T15, PRKD2 (Homo sapiens, UniProt Q9BZL6)
T15 construct: purchased DiscoveRx KINOMEscan
T15 sequence (Q9BZL6 whole entry): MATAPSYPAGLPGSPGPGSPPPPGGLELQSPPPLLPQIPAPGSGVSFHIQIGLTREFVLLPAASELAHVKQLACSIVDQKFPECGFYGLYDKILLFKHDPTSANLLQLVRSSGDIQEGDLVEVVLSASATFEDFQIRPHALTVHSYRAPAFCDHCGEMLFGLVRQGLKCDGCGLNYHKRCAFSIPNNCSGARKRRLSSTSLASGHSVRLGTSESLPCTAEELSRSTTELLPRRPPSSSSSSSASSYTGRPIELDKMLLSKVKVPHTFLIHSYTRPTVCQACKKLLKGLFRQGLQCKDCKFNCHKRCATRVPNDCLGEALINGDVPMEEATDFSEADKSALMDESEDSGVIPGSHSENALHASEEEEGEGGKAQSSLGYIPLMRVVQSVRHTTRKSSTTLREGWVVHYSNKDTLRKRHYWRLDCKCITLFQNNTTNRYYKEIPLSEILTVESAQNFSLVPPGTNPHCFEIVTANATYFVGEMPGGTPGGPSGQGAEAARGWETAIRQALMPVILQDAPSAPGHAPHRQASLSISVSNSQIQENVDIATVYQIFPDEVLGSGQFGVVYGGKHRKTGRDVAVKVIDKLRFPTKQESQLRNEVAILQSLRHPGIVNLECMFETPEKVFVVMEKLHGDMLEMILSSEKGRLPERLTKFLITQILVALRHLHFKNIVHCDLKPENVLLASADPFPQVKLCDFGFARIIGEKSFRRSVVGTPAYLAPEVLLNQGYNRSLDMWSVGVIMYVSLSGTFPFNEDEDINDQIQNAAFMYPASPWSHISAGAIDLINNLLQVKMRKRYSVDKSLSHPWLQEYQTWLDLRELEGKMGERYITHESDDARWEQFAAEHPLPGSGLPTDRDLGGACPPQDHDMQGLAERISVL
Method in brief: as §1

[16] = target: T16, PIK3C2B (Homo sapiens, UniProt O00750)
T16 construct: purchased DiscoveRx KINOMEscan
Method in brief: as §1

[17] = target: T17, ERK4 (Homo sapiens, UniProt P31152)
T17 construct: purchased DiscoveRx KINOMEscan
Method in brief: as §1

[18] = target: T18, PFTK1 (Homo sapiens, UniProt O94921)
T18 construct: purchased DiscoveRx KINOMEscan
Method in brief: as §1

[19] = target: RPS6KA4(Kin.Dom.2-C-terminal) (Homo sapiens, UniProt O75676)
RPS6KA4(Kin.Dom.2-C-terminal), sequence (O75676 372-772 limits assumed): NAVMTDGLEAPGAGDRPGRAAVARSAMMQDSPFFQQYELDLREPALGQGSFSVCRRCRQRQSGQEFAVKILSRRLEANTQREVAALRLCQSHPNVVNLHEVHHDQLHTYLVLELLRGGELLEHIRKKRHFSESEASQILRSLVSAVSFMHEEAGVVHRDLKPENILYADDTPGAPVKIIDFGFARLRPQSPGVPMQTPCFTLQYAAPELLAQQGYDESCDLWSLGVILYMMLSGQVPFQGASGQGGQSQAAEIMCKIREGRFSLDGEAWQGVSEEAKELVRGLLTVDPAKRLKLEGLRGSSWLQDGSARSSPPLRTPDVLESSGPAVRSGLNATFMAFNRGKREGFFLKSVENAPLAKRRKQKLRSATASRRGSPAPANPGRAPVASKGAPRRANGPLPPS
Method in brief: as §1

[20] = target: T19, YES (Homo sapiens, UniProt P07947)
T19 construct: purchased DiscoveRx KINOMEscan
T19 sequence (P07947 whole entry): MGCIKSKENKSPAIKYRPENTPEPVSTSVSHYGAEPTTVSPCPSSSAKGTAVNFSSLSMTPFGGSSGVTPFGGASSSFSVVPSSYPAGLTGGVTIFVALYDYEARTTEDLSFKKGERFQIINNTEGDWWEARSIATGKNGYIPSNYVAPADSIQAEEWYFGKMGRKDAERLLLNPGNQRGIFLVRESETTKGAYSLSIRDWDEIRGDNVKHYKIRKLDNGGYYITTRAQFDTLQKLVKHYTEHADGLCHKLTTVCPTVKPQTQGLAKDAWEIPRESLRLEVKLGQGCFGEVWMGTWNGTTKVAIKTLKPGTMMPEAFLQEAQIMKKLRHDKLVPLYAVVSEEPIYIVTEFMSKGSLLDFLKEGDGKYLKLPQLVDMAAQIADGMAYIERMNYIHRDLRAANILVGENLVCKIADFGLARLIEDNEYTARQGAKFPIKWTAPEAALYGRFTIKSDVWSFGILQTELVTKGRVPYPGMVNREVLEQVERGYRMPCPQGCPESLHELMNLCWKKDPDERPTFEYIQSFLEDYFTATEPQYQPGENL
Method in brief: as §1

[21] = target: T20, IGF1R (Homo sapiens, UniProt P08069)
T20 construct: purchased DiscoveRx KINOMEscan
Method in brief: as §1

[22] = target: T21, LTK (Homo sapiens, UniProt P29376)
T21 construct: purchased DiscoveRx KINOMEscan
Method in brief: as §1

[23] = target: T22, ABL1-nonphosphorylated (Homo sapiens, UniProt P00519)
T22 construct: purchased DiscoveRx KINOMEscan
Method in brief: as §1

[24] = target: RPS6KA5(Kin.Dom.2-C-terminal) (Homo sapiens, UniProt O75582)
RPS6KA5(Kin.Dom.2-C-terminal), sequence (O75582 388-802 limits assumed): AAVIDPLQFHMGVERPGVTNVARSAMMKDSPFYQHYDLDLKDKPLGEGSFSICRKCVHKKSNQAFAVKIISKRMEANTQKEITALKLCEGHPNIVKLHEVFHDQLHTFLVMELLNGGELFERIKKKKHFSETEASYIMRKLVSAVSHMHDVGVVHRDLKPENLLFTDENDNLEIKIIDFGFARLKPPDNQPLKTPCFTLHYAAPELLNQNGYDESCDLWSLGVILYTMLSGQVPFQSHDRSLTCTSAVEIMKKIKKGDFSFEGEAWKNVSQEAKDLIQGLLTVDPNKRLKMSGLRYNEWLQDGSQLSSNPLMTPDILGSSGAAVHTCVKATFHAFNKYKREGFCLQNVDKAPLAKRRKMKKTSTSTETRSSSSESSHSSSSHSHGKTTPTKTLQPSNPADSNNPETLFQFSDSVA
Method in brief: as §1

[25] = target: T23, PRKCI (Homo sapiens, UniProt P41743)
T23 construct: purchased DiscoveRx KINOMEscan
Method in brief: as §1

[26] = target: T24, ERK3 (Homo sapiens, UniProt Q16659)
T24 construct: purchased DiscoveRx KINOMEscan
T24 sequence (Q16659 whole entry): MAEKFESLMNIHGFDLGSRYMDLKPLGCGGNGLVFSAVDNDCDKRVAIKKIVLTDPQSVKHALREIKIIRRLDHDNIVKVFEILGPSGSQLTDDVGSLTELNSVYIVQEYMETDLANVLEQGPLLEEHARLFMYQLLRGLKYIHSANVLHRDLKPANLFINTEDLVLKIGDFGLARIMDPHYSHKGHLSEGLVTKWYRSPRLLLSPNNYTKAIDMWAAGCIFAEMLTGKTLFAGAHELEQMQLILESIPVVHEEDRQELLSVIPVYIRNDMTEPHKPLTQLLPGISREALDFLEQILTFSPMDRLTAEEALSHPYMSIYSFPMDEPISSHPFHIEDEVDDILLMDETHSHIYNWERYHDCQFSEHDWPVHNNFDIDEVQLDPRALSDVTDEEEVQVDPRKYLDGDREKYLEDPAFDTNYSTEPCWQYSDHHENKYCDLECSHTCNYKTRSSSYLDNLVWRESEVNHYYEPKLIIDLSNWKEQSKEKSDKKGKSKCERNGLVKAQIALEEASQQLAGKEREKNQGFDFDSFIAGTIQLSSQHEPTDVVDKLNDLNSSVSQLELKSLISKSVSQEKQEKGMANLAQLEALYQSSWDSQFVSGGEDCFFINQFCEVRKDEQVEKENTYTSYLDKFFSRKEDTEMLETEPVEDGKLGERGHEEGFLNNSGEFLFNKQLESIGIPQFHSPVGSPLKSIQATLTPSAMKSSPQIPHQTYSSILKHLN
Method in brief: as §1

[27] = target: T25, MYO3A (Homo sapiens, UniProt Q8NEV4)
T25 construct: purchased DiscoveRx KINOMEscan
Method in brief: as §1

[28] = target: T26, TIE1 (Homo sapiens, UniProt P35590)
T26 construct: purchased DiscoveRx KINOMEscan
Method in brief: as §1

[29] = target: T27, ANKK1 (Homo sapiens, UniProt Q8NFD2)
T27 construct: purchased DiscoveRx KINOMEscan
Method in brief: as §1

[30] = target: T28, EPHA7 (Homo sapiens, UniProt Q15375)
T28 construct: purchased DiscoveRx KINOMEscan
Method in brief: as §1

In the case of Cc1ccc(C2=Nc3cccnc3S(=O)(=O)c3ccccc32)cc1 [TBPT, 6-(p-tolyl)benzo[f] pyrido[2,3-b][1,4] thiazepine 11,11-dioxide], the remaining binding at 5 µM ([1]; 5 μM) is reported as 97%, the remaining binding at 10 µM ([1]; 10 μM) is reported as 73% and the remaining binding at 5 µM ([2]; 5 μM) is reported as 100%. It also gave a remaining binding at 10 µM ([2]; 10 μM) of 95%, a remaining binding at 5 µM ([3]; 5 μM) of 100% and a remaining binding at 10 µM ([3]; 10 μM) of 90%. It also gave a remaining binding at 5 µM ([4]; 5 μM) of 100%, a remaining binding at 10 µM ([4]; 10 μM) of 92% and a remaining binding at 5 µM ([5]; 5 μM) of 100%. The remaining binding at 10 µM ([5]; 10 μM) was 92%, the remaining binding at 5 µM ([6]; 5 μM) was 100% and the remaining binding at 10 µM ([6]; 10 μM) was 100%. For the same compound, the remaining binding at 5 µM ([7]; 5 μM) was 97%, the remaining binding at 10 µM ([7]; 10 μM) was 83% and the remaining binding at 5 µM ([8]; 5 μM) was 83%. For the same compound, the remaining binding at 10 µM ([8]; 10 μM) was 94%, the remaining binding at 5 µM ([9]; 5 μM) was 96% and the remaining binding at 10 µM ([9]; 10 μM) was 100%. For the same compound, the remaining binding at 5 µM ([10]; 5 μM) was 80%, the remaining binding at 10 µM ([10]; 10 μM) was 100% and the remaining binding at 5 µM ([11]; 5 μM) was 100%. The remaining binding at 10 µM ([11]; 10 μM) was 100%, the remaining binding at 5 µM ([12]; 5 μM) was 100% and the remaining binding at 10 µM ([12]; 10 μM) was 100%. The remaining binding at 5 µM ([13]; 5 μM) was 97%, the remaining binding at 10 µM ([13]; 10 μM) was 100% and the remaining binding at 5 µM ([14]; 5 μM) was 100%. The remaining binding at 10 µM ([14]; 10 μM) was 71%, the remaining binding at 5 µM ([15]; 5 μM) was 100% and the remaining binding at 10 µM ([15]; 10 μM) was 100%. The remaining binding at 5 µM ([16]; 5 μM) was 100%, the remaining binding at 10 µM ([16]; 10 μM) was 100% and the remaining binding at 5 µM ([17]; 5 μM) was 89%. The remaining binding at 10 µM ([17]; 10 μM) was 100%, the remaining binding at 5 µM ([18]; 5 μM) was 100% and the remaining binding at 10 µM ([18]; 10 μM) was 100%. The remaining binding at 5 µM ([19]; 5 μM) was 100%, the remaining binding at 10 µM ([19]; 10 μM) was 90% and the remaining binding at 5 µM ([20]; 5 μM) was 100%. The remaining binding at 10 µM ([20]; 10 μM) was 100%, the remaining binding at 5 µM ([21]; 5 μM) was 100% and the remaining binding at 10 µM ([21]; 10 μM) was 79%. It also gave a remaining binding at 5 µM ([22]; 5 μM) of 100%, a remaining binding at 10 µM ([22]; 10 μM) of 100% and a remaining binding at 5 µM ([23]; 5 μM) of 89%. The remaining binding at 10 µM ([23]; 10 μM) was 100%, the remaining binding at 5 µM ([24]; 5 μM) was 100% and the remaining binding at 10 µM ([24]; 10 μM) was 93%. The remaining binding at 5 µM ([25]; 5 μM) was 95%, the remaining binding at 10 µM ([25]; 10 μM) was 91% and the remaining binding at 5 µM ([26]; 5 μM) was 100%. The remaining binding at 10 µM ([26]; 10 μM) was 100%, the remaining binding at 5 µM ([27]; 5 μM) was 100% and the remaining binding at 10 µM ([27]; 10 μM) was 90%. The remaining binding at 5 µM ([28]; 5 μM) was 100%, the remaining binding at 10 µM ([28]; 10 μM) was 98% and the remaining binding at 5 µM ([29]; 5 μM) was 91%. For the same compound, the remaining binding at 10 µM ([29]; 10 μM) was 72%, the remaining binding at 5 µM ([30]; 5 μM) was 93% and the remaining binding at 10 µM ([30]; 10 μM) was 100%.
